One test has as its system Sarcoma 180 solid tumour. Nature of the test: Therapeutic effect on Sarcoma 180 solid tumour. The class given is in vivo, mice (male; ddy-strain). To be noted: 5.6 mg/kg, abdominally, single, day 7. The method, then: Mice (male; ddy-strain; weight about 20 g; each group consisting of 6 mice) were used as test animals. Sarcoma 180 tumour cells (each 5×10^6cells) were subcutaneously implanted into each mouse at the armpit. 24 hours after this, a phosphate buffered physiological solution of sodium chloride (each 0.2 ml) was intraperitoneally administered to each mouse, a given amount of one of the substances DC-45-A, DC-45-B1 and DC-45-B2 being contained in each solution so that a different substance is administered to each group of mice. The said phosphate buffer contained NaCl (0.8 g/dl), KCl (0.02 g/dl), […] (1.15 g/dl) and KH2 PO4 (0.02 g/dl). For comparison purpose, a similar phosphate buffered solution containing mitomycin C (0.2 ml) was abdominally administered to the mice of another group 24 hours after the implantation of the tumour cells. Table 3 indicates the volume of the tumour (mean value in mm^3) and T/C (mean value; the tumour volume of the animal treated with the test compound/the tumour volume of the control animal treated with 0.2 ml of the phosphate buffered solution of sodium chloride, both being determined 7 days after the implantation.

Test [1] concerns Lymphocytic leukaemia P-388 tumour. Nature of the test: Anti-tumour activity on Lymphocytic leukaemia P-388 tumour. The format is in vivo, mice (male; CDF1 strain). To be noted: 5.6 mg/kg, abdominally. The procedure:
Mice (male; CDF1 strain; weight about 22 g; each group consisting of 5 mice) were used as the test animals. Lymphocytic leukaemia P-388 tumour cells (each 1×10^6 cells) were intraperitoneally implanted into each mouse. 24 hours after this, a phosphate buffered physiological solution of sodium chloride (each 0.2 ml) was intraperitioneally injected once into each mouse, a given amount of one substance being contained in each solution so that a different substance is administered to each group of mice. For comparison, a similar phosphate buffered solution of sodium chloride containing mitomycin C was admnistered abdominally to each mouse of a further control group. Table 4 indicates the average survival time in days and T/C (mean value of the survival days of the animals treated with the test compound/mean value of the survival days of the control animals treated with 0.2 ml of the phosphate buffered solution of sodium chloride).

The structures appear in SMILES notation.

Consider `CO[C@@]12[C@H](COC(N)=O)C3=C(C(=O)C(C)=C(N)C3=O)N1C[C@@H]1N[C@@H]12` [Mitomycin C, mitomycin C], for which, in the test with Sarcoma 180 solid tumour, the “T/C (tumour volume)” value worked out at 0.20 and the “Volume of tumour (mean value)” value is on record as 282 mm^3. Further, in test [1], the Survival days turned out to be 18.0 ± 1.4 days and the “T/C (survival days)” value was 1.88.
